From the supplement of paper PMC10307832

Legend:
Experiment in all cases: relative viability (nuclei count vs DMSO), 5 days (fraction); higher = more cells survive
MLN4924 + Dasatinib = compound: NS(=O)(=O)OC[C@@H]1C[C@@H](n2ccc3c(N[C@H]4CCc5ccccc54)ncnc32)C[C@@H]1O [MLN4924] + Cc1nc(Nc2ncc(C(=O)Nc3c(C)cccc3Cl)s2)cc(N2CCN(CCO)CC2)n1 [Dasatinib] (partner 0.075 µM)
Summary of the method: (§1)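 After 5 days of treatment, lung cancer cells in 1536-well plates were fixed and stained in a single step (final 0.05% Triton X-100, 1% formaldehyde, 1 ug/ml Hoechst) and their nuclei counted on 4× images. Treatment had been applied by pin tool the day after seeding as one drug alone or as a fixed anchor-drug dose with five library-drug doses (not always all listed) in √10 steps. Relative viability is the nuclei count of treated wells divided by that of vehicle wells, and values are medians of duplicate plates.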

Carboplatin + Lapatinib = compound: C1CC(C1)(C(=O)O)C(=O)O.[NH2-].[NH2-].[Pt+2] [Carboplatin] + CS(=O)(=O)CCNCc1ccc(-c2ccc3ncnc(Nc4ccc(OCc5cccc(F)c5)c(Cl)c4)c3c2)o1 [Lapatinib] (partner 2 µM)
Summary of the method: as §1

Carboplatin + Navitoclax = compound: C1CC(C1)(C(=O)O)C(=O)O.[NH2-].[NH2-].[Pt+2] [Carboplatin] + CC1(C)CCC(c2ccc(Cl)cc2)=C(CN2CCN(c3ccc(C(=O)NS(=O)(=O)c4ccc(N[C@H](CCN5CCOCC5)CSc5ccccc5)c(S(=O)(=O)C(F)(F)F)c4)cc3)CC2)C1 [Navitoclax] (partner 0.5 µM)
Summary of the method: as §1

GSK126 + Vorinostat = compound: CC[C@H](C)N1C=C(C2=C(C=C(C=C21)C3=CN=C(C=C3)N4CCNCC4)C(=O)NCC5=C(C=C(NC5=O)C)C)C [GSK126] + O=C(CCCCCCC(=O)Nc1ccccc1)NO [Vorinostat] (partner 1 µM)
Summary of the method: as §1

Cell Line | relative viability (MLN4924 + Dasatinib; first compound 0.04 µM) | relative viability (MLN4924 + Dasatinib; first compound 0.1265 µM) | relative viability (MLN4924 + Dasatinib; first compound 0.4 µM) | relative viability (MLN4924 + Dasatinib; first compound 1.265 µM) | relative viability (MLN4924 + Dasatinib; first compound 4 µM) | relative viability (Carboplatin + Lapatinib; first compound 0.08 µM) | relative viability (Carboplatin + Lapatinib; first compound 0.253 µM) | relative viability (Carboplatin + Lapatinib; first compound 0.8 µM) | relative viability (Carboplatin + Lapatinib; first compound 2.53 µM) | relative viability (Carboplatin + Lapatinib; first compound 8 µM) | relative viability (Carboplatin + Navitoclax; first compound 0.08 µM) | relative viability (Carboplatin + Navitoclax; first compound 0.253 µM) | relative viability (Carboplatin + Navitoclax; first compound 0.8 µM) | relative viability (Carboplatin + Navitoclax; first compound 2.53 µM) | relative viability (Carboplatin + Navitoclax; first compound 8 µM) | relative viability (GSK126 + Vorinostat; first compound 0.08 µM) | relative viability (GSK126 + Vorinostat; first compound 0.253 µM) | relative viability (GSK126 + Vorinostat; first compound 0.8 µM) | relative viability (GSK126 + Vorinostat; first compound 2.53 µM) | relative viability (GSK126 + Vorinostat; first compound 8 µM)
NCI-H1666 | 0.898 | 0.781 | 0.503 | 0.238 | 0.28 | 0.662 | 0.665 | 0.578 | 0.498 | 0.468 | 1.04 | 1.12 | 0.745 | 0.853 | 0.641 | 1.15 | 1 | 0.912 | 0.978 | 1.11
NCI-H1734 | 0.636 | 0.588 | 0.305 | 0.0902 | 0.102 | 1.01 | 1.07 | 1.06 | 1.01 | 0.833 | 0.873 | 0.905 | 0.873 | 0.729 | 0.676 | 0.906 | 0.816 | 0.804 | 0.766 | 0.769
NCI-H1755 | 0.417 | 0.464 | 0.463 | 0.237 | 0.221 | 1.06 | 1.1 | 1.11 | 1.09 | 0.995 | 1.02 | 1.01 | 1.04 | 1.02 | 0.891 | 0.8 | 0.719 | 0.74 | 0.794 | 0.58
NCI-H1793 | 0.384 | 0.366 | 0.408 | 0.345 | 0.325 | 0.941 | 0.49 | 0.485 | 0.628 | 0.833 | 0.496 | 0.585 | 0.388 | 0.453 | 0.435 | 0.841 | 0.703 | 0.717 | 0.825 | 0.671
NCI-H1915 | 0.352 | 0.353 | 0.318 | 0.222 | 0.177 | 0.906 | 1.03 | 0.976 | 0.999 | 0.577 | 0.795 | 0.751 | 0.745 | 0.752 | 0.579 | 0.602 | 0.474 | 0.542 | 0.5 | 0.54
NCI-H1944 | 0.218 | 0.232 | 0.23 | 0.155 | 0.133 | 0.783 | 0.978 | 0.833 | 0.919 | 0.586 | 1.1 | 1.1 | 0.991 | 1.02 | 0.656 | 0.656 | 0.524 | 0.601 | 0.566 | 0.594
NCI-H1975 | 0.39 | 0.385 | 0.483 | 0.678 | 0.324 | 0.877 | 0.993 | 0.838 | 0.826 | 0.884 | 1.19 | 1.26 | 1.01 | 1.09 | 1.18 | 0.708 | 0.676 | 0.741 | 0.645 | 0.67
NCI-H1993 | 0.622 | 0.524 | 0.557 | 0.491 | 0.51 | 0.834 | 0.843 | 0.909 | 0.791 | 0.853 | 0.981 | 0.867 | 0.855 | 0.755 | 0.861 | 0.921 | 0.779 | 0.79 | 1.02 | 1.1
NCI-H2009 | 0.374 | 0.261 | 0.166 | 0.0589 | 0.0792 | 1.37 | 0.89 | 0.837 | 0.958 | 0.572 | 1.12 | 1.08 | 1.09 | 1.04 | 0.733 | 0.822 | 0.679 | 0.714 | 0.672 | 0.771
NCI-H2023 | 0.618 | 0.602 | 0.325 | 0.0611 | 0.0616 | 0.941 | 1.21 | 0.954 | 0.68 | 0.257 | 1.02 | 0.96 | 0.883 | 0.76 | 0.312 | 0.962 | 0.804 | 0.533 | 0.709 | 0.712
NCI-H2085 | 0.215 | 0.226 | 0.339 | 0.393 | 0.292 | 0.8 | 0.897 | 0.787 | 0.748 | 0.815 | 1.25 | 1.09 | 1.09 | 1.05 | 1.09 | 0.851 | 0.813 | 0.804 | 0.841 | 0.948
NCI-H2087 | 0.742 | 0.574 | 0.533 | 0.126 | 0.0652 | 1.22 | 0.968 | 0.86 | 0.969 | 0.833 | 0.944 | 1.03 | 0.944 | 1.01 | 0.895 | 0.847 | 0.523 | 0.652 | 0.652 | 1.15
NCI-H2126 | 0.647 | 0.617 | 0.55 | 0.201 | 0.23 | 0.737 | 0.758 | 0.796 | 0.8 | 0.721 | 0.894 | 0.871 | 0.853 | 0.865 | 0.784 | 0.867 | 0.789 | 0.829 | 0.805 | 0.783
NCI-H2170 | 0.866 | 0.767 | 0.264 | 0.127 | 0.129 | 0.273 | 0.279 | 0.269 | 0.257 | 0.262 | 0.679 | 0.594 | 0.633 | 0.588 | 0.508 | 0.914 | 1.01 | 0.748 | 0.799 | 0.772
NCI-H2228 | 0.524 | 0.638 | 0.14 | 0.107 | 0.11 | 1.61 | 0.939 | 1.01 | 0.868 | 0.616 | 1.2 | 0.818 | 0.855 | 0.744 | 0.472 | 0.343 | 0.725 | 0.644 | 0.616 | 0.923
